Data published in US20210253598A1, “ARYL ANNULATED MACROCYCLIC INDOLE DERIVATIVES” (priority 2017, published 2021).
Values joined by “and” are separate entries in the source; they are usually repeats but may differ in a detail not shown here. Identical values can stand only once. Counter-ions that a name gives are not always drawn. Like-named read-outs stand apart in the source and are kept apart here.

Experiments:
A2780 = experiment: Anti-proliferative effect in A2780 cells, CellTiter-Glo (Assay 7); format: cell-based
Procedure, shortened: (§1)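 Overnight seeding at 37 °C, then 72 h treatment with compound; day 0 plate read at start. Luminescent ATP-based viability readout (CellTiter-Glo). IC50 normalised between day 0 and DMSO values.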

MV-4-11 = experiment: Anti-proliferative effect in MV-4-11 cells, CellTiter-Glo (Assay 7); format: cell-based; conditions: several values per example
Description: (§2) Assessment of the Anti-Proliferative Effect of Compounds in Different Cell Lines
(§3) The impact of compounds on the proliferation of different cell lines was assessed using the CellTiter-Glo® Luminescent Cell Viability reagent from Promega (G7573).
(§4) In parallel, cells were plated in a reference (day 0) plate for time zero determination. Cells were incubated in a humidified incubator at 37° C. overnight.
(§5) Rim wells were excluded. The cells were incubated for 72 hours in a humidified incubator at 37° C. The day 0 plate was measured by adding 30 μL/well of CTG solution (CellTiter-Glo® Luminescent Cell Viability reagent, Promega G7573) to time zero wells in the reference plate followed by a 10 minutes incubation and luminescence reading at 0.1 ms. using the PHERAstar FS microplate reader (BMG Labtech).
(§6) After 72 hours incubation, the treated plates were measured in the same way as the day 0 plate mentioned above. The Bella DRC Master Sheet was used to calculate IC50s, with CI=day 0 values and C0=DMSO control values.

AMO-1 = experiment: Anti-proliferative effect in AMO-1 cells, CellTiter-Glo (Assay 7); format: cell-based; conditions: several values per example
Description: as §2, §3, §4, §5, §6

SUDHL10 [1] = experiment: Induction of cytotoxicity in SUDHL10 cells, CellTiter-Glo (Assay 6); format: cell-based; conditions: SUDHL10, 5 hours incubation, median, read-out: Cytotox SUDHL10 [M] (median)
Procedure, shortened: (§7)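 Run alongside apoptosis assays, this cytotoxicity measure used a 5-hour compound incubation at 37° C in humidified conditions, following overnight attachment. Cell viability was quantified by CellTiter-Glo luminescence.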

SUDHL5 [2] = experiment: Anti-proliferative effect in SUDHL5 cells, CellTiter-Glo (Assay 7); format: cell-based
Procedure, shortened: as §1

SUDHL5 [3] = experiment: Induction of cytotoxicity in SUDHL5 cells, CellTiter-Glo (Assay 6); format: cell-based; conditions: SUDHL5, 5 hours incubation, median, read-out: Cytotox SUDHL5 [M] (median)
Procedure, shortened: as §7

MCL-1 = MCL-1 (Homo sapiens, UniProt Q07820, K194A/K197A/R201A); experiment: Protein-protein interaction assay MCL-1/Noxa BH3 peptide, TR-FRET (MCL-1 assay, Assay 1); format: binding; conditions: MCL-1 Assay [M] (median), MBP-MCL-1 / Noxa BH3 peptide
Sequence of MCL-1 (Q07820 173-321 K194A/K197A/R201A, looked up): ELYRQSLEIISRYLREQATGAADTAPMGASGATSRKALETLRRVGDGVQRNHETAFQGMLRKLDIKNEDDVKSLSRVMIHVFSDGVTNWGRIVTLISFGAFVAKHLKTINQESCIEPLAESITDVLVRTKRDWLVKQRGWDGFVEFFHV
Procedure, shortened: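 TR-FRET competition between compounds and a biotin-PEG Noxa BH3 tracer for 1 nM MBP-MCL-1 (residues 173-321). Incubation was 1 h at 22 °C in the dark, then overnight at 4 °C, in 50 mM Tris pH 7 buffer with KF and DTT, after a 10-min compound pre-equilibration. Normalized ratios were fitted with a 4-parameter Hill equation to give IC50.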

SUDHL10 [4] = experiment: Induction of caspase-3/7 activity in SUDHL10 cells (Assay 4); format: cell-based
Procedure, shortened: (§8)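 Luminescent Caspase-Glo 3/7 read-out in SUDHL5 and SUDHL10 cells after 3 h compound exposure at 37 °C, followed by 1 h reagent incubation.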

SUDHL5 [5] = experiment: Induction of caspase-3/7 activity in SUDHL5 cells (Assay 4); format: cell-based
Procedure, shortened: as §8

[6] = A2780, 72 hours incubation, CellTiter-Glo; several values per example; read-out: Antiproli A2780
[7] = MV-4-11, 72 hours incubation, CellTiter-Glo, read-out: Antiproli MV-4-11
[8] = AMO-1, 72 hours incubation, CellTiter-Glo, read-out: Antiproli AMO-1
[9] = Homo sapiens, SU-DHL-5, 72 h, SUDHL5, 72 hours incubation, CellTiter-Glo, median, read-out: Antiproli SUDHL5 [M] (median)
[10] = Homo sapiens, MV4-11, 72 h, MV-4-11, 72 hours incubation, CellTiter-Glo, read-out: Antiproli MV-4-11
[11] = Homo sapiens, SU-DHL10, 3 h, SUDHL10, 3 hours treatment, Caspase-Glo 3/7, median, read-out: Caspase SUDHL10 [M] (median)
[12] = Homo sapiens, SU-DHL-5, 3 h, SUDHL5, 3 hours treatment, Caspase-Glo 3/7, median, read-out: Caspase SUDHL5 [M] (median)
[13] = Homo sapiens, AMO1, 72 h, AMO-1, 72 hours incubation, CellTiter-Glo, read-out: Antiproli AMO-1
[14] = read-out: Antiproli SUDHL5 [M] (median), SUDHL5, 72 hours incubation, CellTiter-Glo
[15] = read-out: Antiproli MV-4-11, MV-4-11, 72 hours incubation, CellTiter-Glo
[16] = read-out: Caspase SUDHL10 [M] (median), SUDHL10, 3 hours treatment, Caspase-Glo 3/7
[17] = read-out: Caspase SUDHL5 [M] (median), SUDHL5, 3 hours treatment, Caspase-Glo 3/7
[18] = read-out: Antiproli AMO-1, AMO-1, 72 hours incubation, CellTiter-Glo

IC50 (MV-4-11; [10]) | Compound | IC50 (MV-4-11; [7]) | IC50 (AMO-1; [8]) | IC50 (SUDHL10 [1]; Homo sapiens, SU-DHL10, 5 h) | IC50 (SUDHL5 [2]; [9]) | IC50 (SUDHL5 [3]; Homo sapiens, SU-DHL-5, 5 h) | IC50 (MCL-1) | EC50 (SUDHL10 [4]; [11]) | EC50 (SUDHL5 [5]; [12]) | IC50 (AMO-1; [13]) | IC50 (SUDHL10 [1]) | IC50 (SUDHL5 [2]; [14]) | IC50 (SUDHL5 [3]) | EC50 (SUDHL10 [4]; [16]) | EC50 (SUDHL5 [5]; [17]) | IC50 (AMO-1; [18]) | also measured
– | Cc1c2c(nn1C)COCc1cccnc1Cn1c(C(=O)O)c(CCCOc3cccc4ccccc34)c3cccc-2c31 [Example 06] | 5.38e-06 M | 1.99e-05 M | – | – | – | – | – | – | – | – | – | – | – | – | – | IC50 (A2780; [6]): 8.66 µM
– | Cc1c2c(nn1C)COCc1cccnc1Cn1c(C(=O)O)c(CCCOc3cccc4ccccc34)c3cccc-2c31 [Example 05] | 5.48e-06 M | 8.78e-06 M | – | – | – | – | – | – | – | – | – | – | – | – | – | IC50 (A2780; [6]): 6.65 µM
1.42e-05 M | CCc1nn(C)c2c1-c1c(F)ccc3c(CCCOc4cc(C)c(Cl)c(C)c4)c(C(=O)O)n(c13)Cc1ccccc1COC2 (racemic) [Example 86, (rac)-1-(3-(4-Chloro-3,5-dimethylphenoxy)propyl)-14-ethyl-15-fluoro-12-methyl-4,9,11,12-tetrahydrobenzo[3,4]pyrazolo[4′,3′:9,10][1,6]oxaazacycloundecino[8,7,6-hi]indole-2-carboxylic Acid] | – | – | 5.2e-06 M | 4.3e-06 M | 2.9e-06 M | 1.1e-08 M | 6.9e-06 M | 2.7e-06 M | 1.69e-05 M | – | – | – | – | – | – | –
1.18e-05 M | Cc1nn(C)c2c1-c1c(F)ccc3c(CCCOc4cccc5c4CCCC5)c(C(=O)O)n(c13)Cc1ccccc1COC2 (racemic) [Example 83, (rac)-15-Fluoro-12,14-dimethyl-1-(3-((5,6,7,8-tetrahydronaphthalen-1-yl)oxy)propyl)-4,9,11,12-tetrahydrobenzo[3,4]pyrazolo[4′,3′:9,10][1]oxa[6]azacycloundecino[8,7,6-hi]indole-2-carboxylic Acid] | – | – | 5.5e-06 M | 4.9e-06 M | 3.4e-06 M | 1e-08 M | 1.2e-05 M | 4.6e-06 M | 1.61e-05 M | – | – | – | – | – | – | –
– | CCc1c2c(nn1C)COCc1ccccc1Cn1c(C(=O)O)c(CCCOc3cccc4cc(F)ccc34)c3ccc(F)c-2c31 (single isomer, unassigned; enantiomer 2) [Example 75, (+)-4-Ethyl-3-fluoro-17-{3-[(6-fluoronaphthalen-1-yl)oxy]propyl}-5-methyl-5,7,9,14-tetrahydro-indolo[7,1-fg]pyrazolo[3,4-d][2,8]benzoxazacycloundecine-16-carboxylic acid-N-ethylethanamine Salt (Enantiomer 2)] | – | – | – | – | – | 3e-09 M | – | – | – | 1e-05 M | 5.8e-06 M | 5.2e-06 M | 1.5e-05 M | 4.4e-06 M | 1.25e-05 M | IC50 (MV-4-11; [15]): 1.64e-05 M
– | Cc1c2c(nn1C)COCc1ccccc1Cn1c(C(=O)O)c(CCCOc3cccc4ccccc34)c3ccc(F)c-2c31 (single isomer, unassigned; enantiomer 2) [Example 69, (+)-3-Fluoro-4,5-dimethyl-17-{3-[(naphthalen-1-yl)oxy]propyl}-5,7,9,14-tetrahydroindolo[7,1-fg]pyrazolo[3,4-d][2,8]benzoxazacycloundecine-16-carboxylic acid-N-ethylethanamine Salt (Enantiomer 2)] | – | – | – | – | – | 2.1e-08 M | – | – | – | > 3.3e-05 M | 1.2e-05 M | 1.4e-05 M | > 3.3e-05 M | 1.3e-05 M | 2.6e-05 M | IC50 (MV-4-11; [15]): 1.51e-05 M
– | Cc1c2c(nn1C)COCc1ccccc1Cn1c(C(=O)O)c(CCCOc3cccc4cc(F)ccc34)c3ccc(F)c-2c31 (single isomer, unassigned; enantiomer 2) [Example 66, (+)-3-Fluoro-17-{3-[(6-fluoronaphthalen-1-yl)oxy]propyl}-4,5-dimethyl-5,7,9,14-tetrahydroindolo[7,1-fg]pyrazolo[3,4-d][2,8]benzoxazacycloundecine-16-carboxylic acid-N-ethylethanamine Salt (Enantiomer 2)] | – | – | – | – | – | 6.2e-09 M | – | – | – | 8.6e-06 M | 3.6e-06 M | 4.1e-06 M | 1.2e-05 M | 3.3e-06 M | 7.13e-06 M and 7.07e-06 M | IC50 (A2780; read-out: Antiproli A2780; A2780, 72 hours incubation, CellTiter-Glo; several values per example): > 33 µM
– | Cc1c2c(nn1C)COCc1ccccc1Cn1c(C(=O)O)c(CCCOc3cccc4cc(F)ccc34)c3ccc(F)c-2c31 (racemic) [Example 64, (rac)-15-Fluoro-1-(3-((6-fluoronaphthalen-1-yl)oxy)propyl)-13,14-dimethyl-4,9,11,13-tetrahydrobenzo[3,4]pyrazolo[4′,3′:9,10][1,6]oxaazacycloundecino[8,7,6-hi]indole-2-carboxylic Acid] | – | – | 3.2e-06 M | 1.5e-06 M | 2.2e-06 M | 1.5e-09 M | 6e-06 M | 1.7e-06 M | 7.46e-06 M | – | – | – | – | – | – | IC50 (A2780; Homo sapiens, A2780, 72 h, A2780, 72 hours incubation, CellTiter-Glo; several values per example; read-out: Antiproli A2780): 17.1 µM
– | CCc1nn(C)c2c1-c1c(Cl)ccc3c(CCCOc4cccc5cc(F)ccc45)c(C(=O)O)n(c13)Cc1ccccc1COC2 (single isomer, unassigned; enantiomer 2) [Example 59, (−)-3-Chloro-4-ethyl-17-{3-[(6-fluoronaphthalen-1-yl)oxy]propyl}-6-methyl-6,7,9,14-tetrahydro-indolo[7,1-fg]pyrazolo[3,4-d][2,8]benzoxazacycloundecine-16-carboxylic acid-N-ethylethanamine Salt (Enantiomer 2)] | – | – | 8.2e-06 M | – | 2.2e-06 M | 1e-08 M | – | – | – | – | – | – | – | – | – | IC50 (SUDHL5 [2]; Homo sapiens, SU-DHL-5, 72 h, read-out: Antiproli SUDHL5 [M] (median), SUDHL5, 72 hours incubation, CellTiter-Glo): 2.6e-06 M; IC50 (MV-4-11; Homo sapiens, MV4-11, 72 h, read-out: Antiproli MV-4-11 [M], MV-4-11, 72 hours incubation, CellTiter-Glo): 4.5e-06 M; EC50 (SUDHL10 [4]; Homo sapiens, SU-DHL10, 3 h, read-out: Caspase SUDHL10 [M] (median), SUDHL10, 3 hours treatment, Caspase-Glo 3/7): 7.9e-06 M; EC50 (SUDHL5 [5]; Homo sapiens, SU-DHL-5, 3 h, read-out: Caspase SUDHL5 [M] (median), SUDHL5, 3 hours treatment, Caspase-Glo 3/7): 1.9e-06 M; IC50 (AMO-1; Homo sapiens, AMO1, 72 h, read-out: Antiproli AMO-1 [M], AMO-1, 72 hours incubation, CellTiter-Glo): 7.14e-06 M

Compound | IC50 (MV-4-11; [10]) | IC50 (MV-4-11; [7]) | IC50 (AMO-1; [8]) | IC50 (SUDHL10 [1]; Homo sapiens, SU-DHL10, 5 h) | IC50 (SUDHL5 [2]; [9]) | IC50 (SUDHL5 [3]; Homo sapiens, SU-DHL-5, 5 h) | IC50 (MCL-1) | EC50 (SUDHL10 [4]; [11]) | EC50 (SUDHL5 [5]; [12]) | IC50 (AMO-1; [13]) | IC50 (SUDHL10 [1]) | IC50 (SUDHL5 [2]; [14]) | IC50 (SUDHL5 [3]) | EC50 (SUDHL10 [4]; [16]) | EC50 (SUDHL5 [5]; [17]) | IC50 (AMO-1; [18]) | also measured
CCc1nn(CCN2CCOCC2)c2c1-c1c(Cl)ccc3c(CCCOc4cccc5cc(F)ccc45)c(C(=O)O)n(c13)Cc1ccccc1COC2 (racemic) [Example 51, (rac)-3-Chloro-4-ethyl-17-{3-[(6-fluoronaphthalen-1-yl)oxy]propyl}-6-[2-(morpholin-4-yl)ethyl]-6,7,9,14-tetrahydroindolo[7,1-fg]pyrazolo[3,4-d][2,8]benzoxazacycloundecine-16-carboxylic Acid] | 1.96e-06 M | 2.58e-06 M | 2.64e-06 M | 1.9e-06 M | 7.1e-07 M | 1.1e-06 M | 1.5e-09 M | 1.8e-06 M | 8.7e-07 M | 4.26e-06 M | – | – | – | – | – | – | –
